In patent publication US6479460B1, “Synthetic peptides and pseudopeptides having osteogenic activity and pharmaceutical compositions containing the same” (Yissum Research Development Company of the Hebrew …, priority 1996, dated 2002):
“Also recorded” adds a separate entry of the source. Where no end group is shown, it is not given here. [ ]: non-standard residue; d: D form. The star is where a group is joined. Biotin = O=C1N[C@H]2[C@H](CS[C@H]2CCCCC(=O)*)N1; Bpa = N[C@@H](Cc1ccc(C(=O)c2ccccc2)cc1)C(=O)O; Tyr(3-I) = N[C@@H](Cc1ccc(O)c(I)c1)C(=O)O; Desaminotyrosyl = O=C(CCc1ccc(O)cc1)*; NMeY = CN[C@@H](Cc1ccc(O)cc1)C(=O)O; Hexanoyl = CCCCCC(=O)*; NHCH2CH2OMe = COCCN*; GABA = NCCCC(=O)O; βAla = NCCC(=O)O

Assays:
[1] = system: osteoblastic MC3T3 E1 cells; assay: Proliferation assay, osteoblastic MC3T3 E1 cells; assay type: cell-based; settings: for analog concentration evoking the peak inhibitory response / anti-proliferative activity (in words): absence of exogenous OGP, FIG. 8; for Relative in vitro potency (95% confidence limit) MC3T3 E1 cells: analog concentration 10^−13M, mean cell number relative to positive control OGP(1-14) = 1.00
From the text: (§1) Some of the analogs were subjected to a dose response analysis.

[2] = system: fibroblastic NIH 3T3 cells; assay: Proliferation assay, fibroblastic NIH 3T3 cells; assay type: cell-based; settings: analog concentration 10^−11M; mean cell number relative to positive control OGP(1-14) = 1.00
From the text: as §1

[3] = system: osteoblastic MC3T3 E1 cells; assay: Inhibition of stimulatory effect of optimal OGP dose on MC3T3 E1 cells (FIG. 7); assay type: cell-based; settings: cultures treated with 10^−13M synthetic OGP(1-14) plus antagonist
Description: All other cultures were treated with 10^−13M synthetic OGP(1-14) (SEQ ID NO: 1) and the indicated dose of antagonist. Data are mean±SE obtained in three culture wells per condition.
(§2) The effect of OGP analogs on osteoblastic MC3T3 E1 and fibroblastic NIH 3T3 cell proliferation was measured as before [Bab, I., et al (1992) EMBO J. 11:1867]. Some of the analogs were subjected to a dose response analysis. Otherwise the analog concentration was 10^−13M and 10^−11M in the MC3T3 E1 and NIH3T3 cell cultures, respectively. The mean cell number in triplicate culture wells was expressed as percent of a positive control triplicate dosed with OGP(1-14) (SEQ ID NO: 1). Experiments testing one dose per cell line were repeated at least four times and the activity of individual analogs expressed as the mean of results and 95% confidence limit obtained in these repetitive experiments.

[4] = system: osteoblastic MC3T3 E1 and fibroblastic NIH 3T3 cells; assay: Proliferation assay, text statements not split by cell line; assay type: cell-based; settings: for OGP-like proliferative activity (in words): in vitro, compared to OGP(1-14) or parent analog
Description: as §2

ovariectomized rats = assay: Number of bone marrow derived osteoblastic colonies from ovariectomized rats; assay type: in vivo, Sabra rats; settings: OVX rats, 100 ng/day/rat subcutaneous daily for eight weeks, FIG. 6
Description: Twenty five female Sabra rats weighing 250 g each were subjected to bilateral ovariectomy (OVX). Additional five control animals underwent sham OVX. All animals were left untreated for 30 days. Then the OVX animals were divided into five groups, each consisting of five rats. All animals were injected subcutaneously in the nape daily for eight weeks with following solutions: One group was given to OGP(10-14) (SEQ ID NO: 61), 100 ng/day/rat. A second group was given desamino[Tyr^10]OGP(10-14) (SEQ ID NO: 4), 100 ng/day/rat. A third group was given c(Tyr-Gly-Phe-Gly-Gly) (SEQ ID NO: 35), 100 ng/day/rat. The fourth group was given retro OGP ([…] (SEQ ID NO: 60), 300 ng/day/rat. All compounds were dissolved in PBS. An additional control OVX group was given the PBS solvent only. After termination of treatment the animals were killed and the femoral and tibial bone marrow from both posterior limbs was pooled and transferred to alpha minimal essential medium (αMEM). Bone marrow cell cultures were set in 35 mm dishes, 10 dishes per animal, as described previously [Rickard, D. J., et al (1994) Biology, 161:218]. The total number of fibroblastic colonies (CFU-f) formed was determined after three weeks in culture. Immediately after, the CFU-f cultures were stained for alkaline phosphates and co-stained for mineral with alizarin-red-S. The alizarin-red-S positive colonies were considered osteoblastic. Their frequency was expressed as their percentage of the total numbers of colonies. The value for each animal was calculated as the mean percentage obtained in the 10 dishes.

ovariectomized mice = assay: Osteogenic effect of OGP analogs in ovariectomized mice; assay type: in vivo, C57B1/6 mice; settings: OVX mice, subcutaneous daily for six weeks, proximal tibial metaphysis, FIG. 5
Description: Thirty two female C57B1/6 mice weighing 25 gm underwent conventional bilateral ovariectomy (OVX). Additional eight control animals were subjected to sham OVX: the anterior abdominal wall was opened and the ovaries exposed but left intact. All animals were left untreated for 30 days. The OVX animals were then divided into four groups each consisting of eight mice. All animals were injected subcutaneously in the nape daily for six weeks with the following solutions: One group was given OGP(1-14) (SEQ ID NO: 1), 30 ng/day/mouse. A second group received OGP(10-14) (SEQ ID NO: 61), 10 ng/day/mouse. A third group was given desamino[Tyr^10]OGP(10-14) (SEQ ID NO: 4). All compounds were dissolved in phosphate buffered saline (PBS). An additional control OVX group was given the PBS solvent only. One day after termination of treatment the animals were killed and the tibial bones separated, fixed in phosphate buffered formalin and subjected to conventional decalcified histological processing. Sections through the midsagital region of the tibia were stained with Masson trichrome. Bone volume was determined in the secondary spongiosa of the proximal metaphysis in two sections 200-300 μm apart from each other in one tibia from each animal using an automated computerized image analyzer. The value for each animal was the mean reading from the two sections.

[5] = listed as [N(CH3)-Tyr^10]OGP(9-14)
[6] = listed as c[Tyr-Gly-Phe-Gly-Gly]

Row | Substance | Relative in vitro potency (95% confidence limit) MC3T3 E1 cells [1] | Relative in vitro potency (95% confidence limit) NIH 3T3 cells [2] | OGP-like proliferative activity (in words) [4] | further results
1 | Leu-N(CH3)-CH(CH2C6H4(OH))-C(O)-Gly-Phe-Gly-Gly (L[NMeY]GFGG) [N(Me)-[Tyr^10]OGP(9-14)] | −0.34 | −0.32 |  | analog concentration evoking the peak inhibitory response [1]: 10^−13 M; anti-proliferative activity (in words) [1]: inhibit osteoblastic MC3T3 E1 cell proliferation dose dependently at low concentrations with reversal of this inhibition at high doses; anti-proliferative activity (in words) [1, 5]: anti-proliferative activity; inhibition of stimulation by optimal OGP dose / OGP antagonism (in words) [3]: highly potent OGP antagonist; inhibition of stimulation by optimal OGP dose / OGP antagonism (in words) [3, 5]: inhibitory effect at low doses
2 | Nα-Ac—OGP(12-14) (Ac-Phe-Gly-Gly) | 0.06 | 0.07 | essentially nil | 
3 | Nα-biotinylcaproyl[Bpa^12]OGP(10-14) ({Biotin-Hexanoyl}-YG[Bpa]GG) [Nα-biotinylcaproyl-[BPA^12]OGP(10-14)] |  |  | remained unaltered | 
4 | Tyr(m-I)-Gly-NH-CH(CH2C6H4(C(O)C6H5))C(O)-Gly-Gly ([Tyr(3-I)]G[Bpa]GG) [[Tyr^10(m-I),BPA^12]OGP(10-14)] | 0.80 | 0.85 | remained unaltered | 
5 | Tyr-Gly-NH-CH(CH2C6H4(C(O)-C6H5))C(O)-Gly-Gly (YG[Bpa]GG) [[Bpa^12]OGP(10-14)] | 0.74 | 0.86 | only a minor effect on the OGP-like proliferative activity | 
6 | Tyr-Gly-Phe-Gly-Asp (YGFGD) [[Asp^14]OGP(10-14)] | −0.39 | −0.28 |  | analog concentration evoking the peak inhibitory response [1]: 10^−13 M; anti-proliferative activity (in words) [1]: anti-proliferative activity; also recorded: inhibit osteoblastic MC3T3 E1 cell proliferation dose dependently at low concentrations with reversal of this inhibition at high doses; inhibition of stimulation by optimal OGP dose / OGP antagonism (in words) [3]: inhibitory effect at low doses
7 | [Ala^11]OGP(11-14) (AFGG) | 0.17 | 0.07 | essentially nil | 
8 | [Gly^13ψ(CH2)2Gly^14]OGP(11-14) (GFGG; also: reduced ethylene bond ψ(CH2)2 between Gly13 and Gly14) | 0.15 | 0.08 | essentially nil | 
9 | [Pro^11]OGP(10-14) (YPFGG) | 0.89 | 0.96 |  | OGP-like proliferative activity (in words) ([4]; listed as Table 5, analog 2): remained essentially unaltered
10 | c(Gly-Gly-Phe-Gly-Tyr) (GGFGY; cyclic) | 0.95 | 1.02 | preserved or slightly improved its in vitro activity | 
11 | c(Tyr-Gly-Phe-Gly-Gly) (YGFGG; cyclic) | 0.79 | 1.12 | preserved or slightly improved its in vitro activity | reversal of reduction in osteoprogenitor cells / osteoblastic colonies (in words) (ovariectomized rats): improved over OGP(10-14); reversal of reduction in osteoprogenitor cells / osteoblastic colonies (in words) (ovariectomized rats; [6]): improved in vivo activity; OGP-like proliferative activity (in words) [4, 6]: preserves the OGP-like in vitro activity
12 | c(β-Ala-Tyr-Gly-Phe-Gly-Asp)-OH ([βAla]YGFGD-OH; lactam (positions not given here); also: cyclic, closure site not given here) [c(β-Ma-Tyr-Gly-Phe-Gly-Asp)-OH] | −0.08 | -0.19 | essentially nil | 
13 | c(γ-Abu-Tyr-Gly-Phe-Gly-Asp)-OH ([GABA]YGFGD-OH; lactam (positions not given here); also: cyclic, closure site not given here) | 0.13 | 0.07 | essentially nil | 
14 | cyclo(GG[dF]G[dY]) | 1.03 | 1.16 | preserved or slightly improved its in vitro activity | 
15 | cyclo([dY]G[dF]GG) | 0.69 | 0.84 | retained a considerable level of proliferative activity | OGP-like proliferative activity (in words) ([4]; listed as c[D-Tyr-Gly-D-Phe-Gly-Gly]): considerable level of proliferative activity
16 | desamino Tyr-Gly-Phe-Gly-Gly ([Desaminotyrosyl]GFGG) [desamino[Tyr^10]OGP(10-14)] | 0.77 | 0.66 |  | reversal of reduction in osteoprogenitor cells / osteoblastic colonies (in words) (ovariectomized rats): either similar or superior to the parent oligopeptides; also recorded: either similar or superior to those of OGP(1-14); retention of OGP-like activity ([4]; summary of Table 1): approximately 70%; reversal of trabecular bone loss (in words) (ovariectomized mice): either similar or superior to the parent oligopeptides; also recorded: either similar or superior to those of OGP(1-14)
17 | desamino[Tyr^10]OGP(10-13)—NH(CH2)2OMe ([Desaminotyrosyl]GFG-NHCH2CH2OMe; SMILES COCCNC(=O)CNC(=O)[C@H](Cc1ccccc1)NC(=O)CNC(=O)CCc1ccc(O)cc1) | 0.03 | 0.06 | essentially nil | 
